Measured values published in US20250082587A1, “Method Of Treating Major Depressive Disorder” (CLEXIO BIOSCIENCES LTD., priority 2023, published 2025).

Test system: subjects with MDD with an inadequate response to standard antidepressant therapy
Test: Phase 2, randomized double blind study of 40 mg immediate release once daily esketamine as adjunct therapy; change in MADRS score
Type: in vivo, human
Details: for Change from baseline against placebo (MADRS): sub-analysis, 40 mg oral once daily
Experimental: A Phase 2, randomized double blind study to assess the safety and efficacy of 40 mg immediate release once daily esketamine as an adjunct therapy for subjects with MDD with an inadequate response to standard antidepressant therapy.
The safety and efficacy of 65 subjects with MDD with an inadequate response to standard antidepressant therapy were assessed in a Phase 2, randomized double blind study following the administration of 40 mg of immediate release once daily esketamine as adjunct therapy.
The study comprised 3 phases, screening (Days 0-28), double-blind treatment (days 29-56) and post-treatment safety follow-up (days 57-70) following the last study treatment administration.
The study's primary efficacy endpoint was the change from baseline to week 4 in the 10 item Montgomery-Åsberg Depression Rating Scale (MADRS). Key secondary efficacy endpoints included the change in the self-rated Symptoms of Depression Questionnaire (SDQ) from Baseline to Week 4, the change in the Sheehan Disability Scale (SDS) from Baseline to Week 4, the change in the MADRS score from Baseline to Week 2 and the change in the Clinical Global Impression-Severity (CGI-S) from Baseline to Week 4.
During screening, subjects were assessed for study eligibility and washed out from disallowed drugs. Inclusion criteria for the study included the subjects presenting with a baseline MADRS of at least 24.
After being found eligible, subjects were randomized to receive once daily, either placebo or 40 mg of oral, immediate release, esketamine, respectively.
Subjects received the first dose of their study drug at the study site and were then closely monitored for 3 hours to assess for potential neuropsychiatric adverse events using a comprehensive set of scales to identify sleepiness, sedation and dissociative effects. Thereafter, the subject was provided with a 1 week supply of the study drug for administration at their place of residence and instructed to take the study drug in the evening (except at the day of the weekly visit when it is taken at the study site) and not to drive for at least 8 hours following the dosing. At every subject visit, a psychiatrist evaluated the subject's MADRS score.

CN[C@]1(c2ccccc2Cl)CCCCC1=O [esketamine, (2S)-2-(2-Chlorophenyl)-2-(methylamino)cyclohexanone]
improvement in the symptoms (baseline MADRS of 28 or more, 40 mg immediate release oral, 28 days): statistically significant improvement | improvement in depression symptoms (baseline MADRS of less than 28, 40 mg immediate release oral, 28 days): no identifiable improvement | Change from baseline against placebo (MADRS) (baseline MADRS score <28, 28 days): +4.25 | Change from baseline against placebo (MADRS) (baseline MADRS score ≥28, 28 days, p value 0.005): −7.425 | Change from baseline against placebo (MADRS) (baseline MADRS score ≥33, 28 days, p value 0.050): −5.978 | primary efficacy endpoint (change from baseline to week 4 in MADRS) between treatment groups (subjects who completed the study, 40 mg oral once daily vs placebo): clinically meaningful and statistically significant
